Tests used:
[1] = tested on: human retinal endothelial cells (HREC); experiment: PMA-induced HREC network formation in fibrin gel; assay type: cell-based; details: PMA 25 ng/mL, vs PMA control
Experimental: Prior to the start of the experiment, HREC from Cell Systems were cultured in flask in CS-C complete medium. The tube formation assay was performed in a 96-well plate pre-coated with fibrin gel. HREC were collected from flasks and re-suspended 1% FBS EBM-2 medium. Cells were pre-incubated with the integrin antagonists, echistatin or vehicle control for 30 min before loading onto the fibrin gel. Images were taken at 9 h.
Thrombin solution and fibrinogen solutions were allowed to thaw at room temperature and 37° C. water bath, respectively. Fibrinogen solution at 30 μL was added into the desired number of wells in a 96-well plate. Plate was gently shaken to ensure uniform coverage of fibrinogen solution in the well. Thrombin at 20 μL was added into each well. The plate was gently shaken immediately to ensure the thrombin was mixed well with fibrinogen. The plate was placed at 37° C. overnight to allow the fibrin gel to polymerize.
HREC were trypsinized at about 80% confluence and counted by standard hemocytometer methods. After deactivating trypsin with 5 mL of 10% FBS EBM-2 medium, the cells were centrifuged (800 rpm, 8 min) and re-suspended at 2×10^5 cells/mL in 1% FBS EBM-2 medium
Cells were pre-incubated with integrin compounds or echistatin at 37° C., 5% CO2, and 95% humidity for 30 minutes before mixing with PMA medium. The final concentrations of all agents are shown in the design table. The 100 μL of the cell mixture was added onto the gel and cells were cultured at 37° C., 5% CO2, and 95% humidity. Images were taken at different time points.
The network formation scoring system (a five point-scale)
Each well in one group was given a score and then averaged. Data were expressed as mean±SEM of network formation scores. Statistical analysis was performed using a one-way ANOVA-Dunnett's test in raw data, and p<0.05 was considered statistically significant. Data analysis was performed using statistical analysis software JMP (SAS Institute, Cary, N.C.).

[2] = tested on: human retinal endothelial cells (HREC); experiment: Testing 7: VEGF-induced HREC proliferation (MTS assay), integrin antagonists and Lucentis alone and in combination; assay type: cell-based
Experimental: HREC were first cultured overnight in a 96-well plate coated with fibronectin. The next day medium containing different agents as shown in Tables 14 and 15 was pre-incubated for 1 hour before being added into appropriate wells. The cells were cultured at 37° C., 5% CO2, and 95% humidity for another 3 days. After that, cell proliferation was estimated by the MTS assay. In the first study we used VEGF 10 ng/mL (about EC80 in study PH08169), Lucentis® 1 ng/mL (about EC25 in study PH09038) and 5 doses of BOL-303055-X. Normal IgG (1 ng/ml) was also added to groups containing no Lucentis®. All groups contained the same amount of 0.1% DMSO. In the second study, all five compounds (BOL-303049-X, BOL-303050-X, BOL-303051-X, BOL-303054-X and BOL-303055-X) were tested at 1 nM with other conditions remaining the same.
A 96-well plate was coated with human fibronectin (10 μg/mL) for 5 hours at 37° C. HREC were washed with HBSS buffer once, tripsinized and re-suspended in 10% FBS CS-C medium at 18,000 cells/mL. Cells (200 μL) were added to the plate and cultured overnight at 37° C., 5% CO2, and 95% humidity. Next day, the cells were serum-starved for 2 hours.
For study I, VEGF at 10 ng/mL, Lucentis® at 1 ng/mL and BOL-303055-X at 0.1, 0.3, 1, 3 and 10 nM were prepared in 1% FBS CS medium as shown in Table 14. Normal IgG (1 ng/mL) were added to groups containing no Lucentis®. All medium solutions were incubated for 1 hour at 37° C. After carefully medium was aspirated, 200 μL of the medium containing different agents were then added into appropriate wells. The cells were cultured for another 3 days. For the study II as shown in the Table 15, five compounds were tested at 1 nM with other conditions remaining the same as study I.
At the end of incubation, the medium was carefully aspirated from cells and 120 μl of MTS working solution was added into all wells including blank wells (without cells). The plates were incubated at 37° C., 5% CO2, and 95% humidity for 1 hour and then read by a plate reader at 490 nm wavelength.
Median optical density (OD) was generated from different groups. Data were expressed as mean±SEM of the OD values. Statistical analysis was performed using three-way ANOVA after Box-Cox transformations, and p<0.05 was considered statistically significant. To evaluate whether the effects of the combinations were either synergistic or additive, net inhibitions were calculated by subtracting the basal levels in the presence of VEGF from the individual treatments (Lucentis® and Integrin blockers) and the combinations. […] Data analysis was performed utilizing the statistical analysis software JMP (SAS Institute, Cary, N.C.).

[3] = Ocular clinical findings in rats 14 days after intravitreal injection
Experimental: The anterior segment of the eye was examined using a slit-lamp biomicroscopy for excluding any animals with abnormalities that might interfere with the study. Fundus photography and fluorescein angiography (FA) were performed to document the health of the retina and the ocular circulation using a TRC 50EX fundus camera (Topcon). For FA, 10% sodium fluorescein was injected intravenously (50 mg/kg of body weight) through the tail vein or the vein under the incisor before the procedure.
Immediately after placement of laser photocoagulation, the experimental eyes received an intravitreal injection of either a compound or a vehicle as described in Table 5. Following the disinfection of ocular surface with 5% betadine and 0.9% saline solutions, the injections were performed with aid of a surgical microscope using 0.3 mL syringes with a 31-gauge ½-inch long needle (Ultra-Fine II™ Insulin syringe, BD, Franklin Lakes, N.J.).
Two weeks after photocoagulation, all rats were examined under anesthesia and pupil dilation with slit-lamp biomicroscopy, fundus photography and FA as described in the baseline examination.

[4] = study II, compound 1 nM, Lucentis 1 ng/mL
[5] = Day 14, 200 μg/eye intravitreal

Eyes with anterior chamber inflammation/Total eyes [3, 5] | Eyes with retinal vascular congestion/vessel-observable eyes [3, 5] | SMILES | Inhibition of PMA-induced HREC network formation in fibrin gel ([1]; 1 nM) | Inhibition of PMA-induced HREC network formation in fibrin gel ([1]; 10 nM) | Combination effect with Lucentis on VEGF-induced HREC proliferation (synergistic/additive) [2, 4] | HREC proliferation without VEGF ([2]; basal and Lucentis-treatment conditions, Lucentis 1 ng/mL, BOL-303055-X 0.1-10 nM, other compounds 1 nM) | Inhibiting effect on VEGF-induced HREC proliferation in the presence of Lucentis versus without ([2]; study I, 0.1, 0.3, 1, 3 and 10 nM, Lucentis 1 ng/mL) | Inhibition of VEGF-induced HREC proliferation, compound alone ([2]; study I, 0.1-10 nM, VEGF 10 ng/mL) | Combination effect with Lucentis on VEGF-induced HREC proliferation (synergistic/additive) ([2]; study I, compound 0.1 nM, Lucentis 1 ng/mL) | Combination effect with Lucentis on VEGF-induced HREC proliferation (synergistic/additive) ([2]; study I, compound 0.3 nM, Lucentis 1 ng/mL) | Combination effect with Lucentis on VEGF-induced HREC proliferation (synergistic/additive) ([2]; study I, compound 1, 3 and 10 nM, Lucentis 1 ng/mL) | Posterior synechiae of iris [3, 5] | Intraocular inflammation and retinal vascular congestion ([3]; Day 14 after intravitreal injection)
4/6 | 4/5 | COc1c(NC[C@H](NC(=O)OCc2ccccc2)C(=O)O)ncnc1N1CCC(c2ccc3c(n2)NCCC3)CC1 [BOL-303054-X] | not statistically significant | not statistically significant | additive effects | – | – | – | – | – | – | – | –
5/6 | 2/2 | CCc1nc(NC[C@H](NC(=O)OCc2ccccc2)C(=O)O)c(C)c(N2CCC(c3ccc4c(n3)NCCC4)CC2)n1 [BOL-303055-X] | – | significantly inhibited | additive effects | reduced HREC proliferation in a statistically significant and dose-dependent manner | significantly greater inhibiting effect | inhibited VEGF-induced HREC proliferation in a dose-dependent manner | synergistic effects | additive | additive | Posterior synechiae of iris occurred in several eyes | –
0/6 | 0/5 | COc1ccc(S(=O)(=O)N[C@@H](CNc2nc(C)nc(N3CCC(c4ccc5c(n4)NCCC5)CC3)c2C)C(=O)O)cc1 [BOL-303050-X] | significantly inhibited | significantly inhibited | additive effects | – | – | – | – | – | – | – | Neither inflammation nor retinal vascular congestion was observed
